Source: patent US20090317376A1, “Compositions And Methods For Lipo Modeling” (Georgetown University MEDICAL SCHOOL, priority 2005, published 2009)
Entries after “also recorded” stand apart in the source; their conditions may differ.

Tested on: abdominal fat pad
Assay: Local NPY or Y2R antagonist treatment of the abdominal fat pad (ob/ob, WT, eNOS−/− mice)
Type: in vivo
Details: for capillary density / density of von Willebrand factor positive microvessels in abdominal fat: Y2R antagonist intra-fat vs vehicle; for fat in the region of the pellet (MRI thresholded for fat): compared to Placebo pellets, FIG. 9; for adipocyte number and size, Y2R staining in subcutaneous abdominal fat pad (immunohistochemistry): FIG. 10
Method: Eight week old ob/ob mice are used to study the growth of adipose tissue when treated with growth factor NPY versus antagonist. Whether the Y2R antagonist causes regression of fat deposits is determined using an antagonist in older 3-6 month old ob/ob mice. […] Fat pads (subcutaneous abdominal, omental, subcutaneous, sternal, and interscapular) are harvested and examined to determine whether there is hyperplasia, hypertrophy, or apoptosis of the fat cells. Whether NPY-mediated angiogenesis is involved in adipose tissue growth is determined. The anti-angiogenic effects and consequences of Y2R antagonist on adipose tissue growth is determined by subcutaneous injections of Y2R antagonist BIIE0246 (0.2 ml, 1 μM, daily/14 days) periabdominally into the abdominal fat pad or subcutaneous implantation of a slow-release pellet containing BIE0246 (10 μg/14 days) followed by an evaluation of the fat deposits by MRI. These fat pads are then harvested, weighed, and stained for endothelial markers and NPYRs. Fat pads are further characterized by RT-PCR, quantitative real-time PCR, and ELISA.
NPY slow-release pellets (1 μg/14 days) are inserted subcutaneously into the abdominal fat pad of ob/ob, C57BL/6 and SV129 WT mice. […] NPY pellets are also inserted into eNOS^−/− -mice. […] Specific peptide Y2R antagonist, BIIE0246, is subcutaneously injected periabdominally (0.2 ml, 1 μM, daily/14 days) or is given in the form of a slow release pellet (10 μg/14 days). […] Changes in visceral fat are visualized by MRI and quantified by volumetric calculations (FIG. 9). Fat pad weight is also measured upon euthanasia of the mice (FIG. 8).
In vivo treatment of murine model of obesity with antagonist: 6-week-old mice from four murine strains: C57BL-6, ob/ob, SV129, and eNOS^−/− are used. The mice are separated into treatment groups to compare the effects of diet, stress, NPY and specific receptor antagonists. The mice are weighed every other day during the course of the treatment. Control groups for the transgenic mice are matched by background strain, age, and gender. WT C57BL/6 mice (a background strain predisposed to weight gain [64]) is fed a “comfort food diet” consisting of lard and sugar and subjected to cold stress (1 hour in a cage with 1 cm of ice and water at the base of the cage). NPY is delivered locally by the implantation of a NPY slow-release pellet ([…]) into the abdominal fat pad. NPY receptor antagonists or antisense ODN is delivered by rotating daily subcutaneous injections (0.2 ml, 1 μM, daily/14 days) in the abdominal region. 20-mer phosphorothioate oligonucleotide antisense, targeted forward from rat Y2-gene transcription initiation codon (5-[…]-3′) (Molecular Research Laboratories, Herndon, Va.) is used. The scrambled antisense sequence contains some modified deoxynucleotides in a random order (5′-[…]-3′).
Tissue sample collection and processing: After treatment, fat pads are harvested from: 1) subcutaneous abdominal, 2) intra-abdominal (omental), 3) inguinal, 4) interscapular. The total central fat (abdominal region only) weight (FW) and FW to percent of body weight (F/B) is measured. The adipose tissue is processed for paraffin embedding and sections, […], are collected on glass slides for immunohistochemistry. 50 mg of tissue is used for quantitative real-time RT-PCR.
Magnetic Resonance Imaging (MRI): A Brukker 7-Tesla small-animal magnetic resonance imager coil is used to visualize and noninvasively quantitate various fat depots. A 3-dimensional (3D) T2-weighted (T2W) imaging protocol optimized for high contrast fat-imaging is implemented. […] Quantification of the total body fat as well as separate specific fat depots is calculated using thresholding and voxel count plugins from NIH image J software. VolumeJ is used to render, in a 3D image, the various fat depots.

[1] = 8-week old ob/ob mice, s.c. 0.2 ml, 1 μM, daily/14 days or pellet 10 μg/14 days, vs saline/PLC
[2] = BIIE0246 1 μM/day s.c. into the abdominal pads, within 2-weeks
[3] = NPY 1 μg/14 day-pellet, both obese and lean mice
[4] = NPY slow-release pellet 1 μg/14 days vs placebo, ob/ob, C57BL/6 and SV129 WT mice

Compound	decrease in F/B [1] [%]	decrease in FW [1] [%]	decrease of abdominal pad volume [2] [%]	decrease of abdominal pad weight [2] [%]	capillary density / density of von Willebrand factor positive microvessels in abdominal fat (listed as Y2R antagonist)	capillary density / density of von Willebrand factor positive microvessels in abdominal fat (listed as Y2R-antagonist)	fat in the region of the pellet (MRI thresholded for fat)	TUNEL-positive staining of endothelial cells and adipocytes (intra-fat injections of Y2R antagonist)	adipocyte number and size, Y2R staining in subcutaneous abdominal fat pad (immunohistochemistry) (ob/ob mice)	subcutaneous abdominal adipose tissue volume (MRI) [3]	subcutaneous abdominal adipose tissue weight (g) [3]	WAT cellularity, proliferation of small adipocytes (NPY in WT mice)	FW to body weight ratio (F/B) (NPY pellet, eNOS−/− mice)	total central fat weight (FW) / fat pad weight (NPY pellet, eNOS−/− mice)	FW to body weight ratio (F/B) [4]	total central fat weight (FW) / fat pad weight [4]	adipogenic activity in eNOS−/− mice (mice deficient in endothelial nitric oxide synthase)	visceral fat (ob/ob mice, NPY, FIG. 8)
N=C(N)NCCC[C@H](NC(=O)CC1(CC(=O)N2CCN(C3c4ccccc4NC(=O)c4ccccc43)CC2)CCCC1)C(=O)NCCn1c(=O)n(-c2ccccc2)n(-c2ccccc2)c1=O (some centres unmarked) [BIIE0246]	40	40	50	50	decreased the density of von Willebrand-positive microvessels	significant decrease in capillary density	decreased fat	increasing TUNEL-positive staining	fewer but larger adipocytes and fewer Y2Rs									
neuropeptide Y [NPY]							increased fat		greater number of smaller adipocytes	significantly increased	significantly increased	mimicked	no significant weight gain	no significant weight gain	significant increase	significant increase; also recorded: Increase of fat pad weight	resistant to NPY's adipogenic activity	increases visceral fat
